Laboratory results as given in patent publication US20110172182A1, “Carboxyethylated Cyclodextrin Polysulfates Useful As Medicaments” (ARCARIOS B.V., priority 2008, published 2011).

Tests used:
[1] = tested on: healthy donor thrombocytes; test: Platelet activation (CD62p, flow cytometry) by HIT patient anti-heparin/PF4 antibodies; format: cell-based, human; details: for ratio: % CD62p+ (with substance)/% CD62p+ (without) / ΔCD62p+ %: percentage increases in CD62p positive platelets: 0.3 IU heparin or 5 μg/ml polysaccharide
Method: The activation of healthy donor thrombocytes by HIT patient anti-heparin/PF4 antibodies in the presence of heparin and the differently sulfated forms of β-cyclodextrin was tested. […] The expression of CD62p by the activated platelets was assayed by means of flow cytometry with a FC500 analyzer (available from Beckman Coulter, Belgium). Platelet-rich plasma solution (PRP) was prepared by slow centrifugation (10 minutes at 180 g) of fresh citrate anti-coagulated blood (1:9 v/v, 0.129 mol/L or 3.8% trisodium citrate buffer), obtained from normal donors. HIT Ab positive plasma samples from patients and HIT Ab negative control plasma from healthy donors were prepared by double centrifugation (15 minutes at 2230 rpm) of fresh citrate anti-coagulated blood. 70 μl of PRP was incubated with 20 μL of HIT Ab containing plasma optionally in the presence of heparin (0.3 IU/ml) or the relevant β-cyclodextrin derivative (5 μg/ml). Experiments with each HIT Ab positive plasma sample were repeated independently using thrombocytes of 2 donors (A and B), to avoid the possibility of non-reactive platelets.
Following the initial 40 minutes incubation step, 5 μl of the platelets solution was transferred to a fresh tube with 85 μL phosphate buffered saline (PBS) containing 1% bovine serum albumin (BSA) and 0.1% Na-azide, 5 μl (0.25 μg) monoclonal anti-CD41 antibodies (Ab) (phycoerythrin-Texas Red Energy coupled dye (ECD)-conjugated, Beckman Coulter) and 5 μl (0.125 μg) of anti-CD62p Ab (phycoerythrin (PE)-conjugated, Beckman Coulter). CD41 (Glycoprotein […]) is a selective marker of platelets and platelet precursors. CD62p is a constituent of alpha granules and is released to the platelet surface on activation.
After 20 minutes of incubation at room temperature, the total volume of the platelet suspension was adjusted to 600 μL buffered solution and evaluated without delay by flow cytometry. 20,000 events per sample were analysed and the platelet populations were gated by side scatter characteristics and the platelet marker CD41. The fraction of activated platelets among the total platelet population was determined and relative CD62p ratios to the internal controls were calculated. [ratio: % CD62p^+ (0.3 IU Heparine or 5 μg/ml β-cyclodextrin derivative)/% CD62p^+ (0 IU Heparine or 0 μg/ml β-cyclodextrin derivative)]. Test results for the heparin treated platelets were evaluated by the scoring system described in Thromb. Haemost. (1999) 82:1255-1259. Control tests were scored positive when the calculated ratios of at least 2 donors were more then 2, based on previously obtained results with normal individuals. To evaluate the potential of the different β-cyclodextrin derivatives to induce platelet activation, both the percentages and ratios of CD62p^+ platelets after incubation with the respective β-cyclodextrin were statistically compared to the percentage and the ratio of CD62p^+ platelets after heparin incubation.

[2] = tested on: normal pooled plasma; test: Blood coagulation activities (aPTT, PT, fibrinogen) in normal pooled plasma; set-up: species or system human; details: after incubation with 50 or 100 μg/ml
Method: MA-CDPS, HP-CDPS, CE-CDPS and CDPS (as defined in examples 3-4 and characterised in table 1) were prepared as buffered solutions at various concentrations. The polysaccharides were incubated with normal pooled plasma prepared out of 40 healthy volunteers and analyzed for their effects on activated partial thromboplastin time (aPTT), prothrombin time (PT) and fibrinogen levels on a STA Compact® coagulation analyzer (available from Diagnostica Stago, Asnieres, France) according to the manufacturers instructions.

[3] = tested on: C57BI/6 male mice; test: Collagenase-induced knee osteoarthritis in mice, histopathology; format: in vivo
Method: Knee osteoarthritis was induced by injecting the right knees of adult (10 weeks) C57BI/6 male mice with 10 μl of a 2 U/μl collagenase type VII (Sigma C-9572, available from Sigma-Aldrich Belgium) solution. The left knee of these animals was injected with 10 μl PBS and served as a control. Two groups of each 8 mice were randomized on weight, the first group was injected subcutaneously once weekly, with 1 mg/kg of the CE-CDPS of example 3, the second group was treated with saline. Treatment was initiated three days after the mice received their intra-articular injection. The animals were fed a standard diet with tap water ad libitum and their weight was recorded twice a week. The mice were sacrificed three weeks after induction of knee osteoarthritis and the liver, kidneys and knee joints were fixed immediately in 2% neutral buffered paraformaldehyde (Fluka 76240, available from Sigma-Aldrich Belgium).
After fixation, knee joints were decalcified in 0.5 M EDTA in PBS and embedded in paraffin. 5μ tissue sections were cut and stained with haematoxylin and eosin for an analysis of the general morphology or with safranin-O for an assessment of proteoglycan content. Each 100 μm, 3 sections of the joint were evaluated.
Stained slides were submitted for evaluation. The following parameters were evaluated: synovial inflammation, fibrosis, osteophytes and erosion of cartilage. Synovial inflammation was graded from 0 to +3 as follows: 0 no changes from normal; +1 mild changes; +2 moderate changes; and +3 severe changes.
Fibrosis was scored as follows: 0 no changes from normal; +1 fibrosis without metaplasia; +2 fibrosis associated with chondroplasia; +3 fibrosis associated with metaplastic bone. Osteophytes were graded from 0 to +4 referring to the amount of osteophytes observed, with a maximum score of 1 per compartment.
Cartilage erosion was graded from 0 to +3 as follows: 0 no changes from normal; +1 only superficial erosion; +2 loss of proteoglycan in one compartment; and +3 loss of proteoglycan in different compartments. In this scoring system the femoral/tibial junction as a whole was taken in consideration by 2 independent investigators.

[4] = HIT ab plasma pat1, platelet donor dA
[5] = HIT ab plasma pat1, platelet donor dB
[6] = HIT ab plasma pat2, platelet donor dA
[7] = HIT ab plasma pat2, platelet donor dB
[8] = HIT ab plasma pat3, platelet donor dA
[9] = HIT ab plasma pat3, platelet donor dB
[10] = HIT ab plasma pat4, platelet donor dA
[11] = HIT ab plasma pat4, platelet donor dB
[12] = in the presence of plasma samples of individuals that had developed HIT Ab
[13] = 1 mg/kg subcutaneously once weekly, OA knees

Substance	ratio: % CD62p+ (with substance)/% CD62p+ (without) [1, 4]	ΔCD62p+ %: percentage increases in CD62p positive platelets [1, 4] [%]	ratio: % CD62p+ (with substance)/% CD62p+ (without) [1, 5]	ΔCD62p+ %: percentage increases in CD62p positive platelets [1, 5] [%]	ratio: % CD62p+ (with substance)/% CD62p+ (without) [1, 6]	ΔCD62p+ %: percentage increases in CD62p positive platelets [1, 6] [%]	ratio: % CD62p+ (with substance)/% CD62p+ (without) [1, 7]	ΔCD62p+ %: percentage increases in CD62p positive platelets [1, 7] [%]	ratio: % CD62p+ (with substance)/% CD62p+ (without) [1, 8]	ΔCD62p+ %: percentage increases in CD62p positive platelets [1, 8] [%]	ratio: % CD62p+ (with substance)/% CD62p+ (without) [1, 9]	ΔCD62p+ %: percentage increases in CD62p positive platelets [1, 9] [%]	ratio: % CD62p+ (with substance)/% CD62p+ (without) [1, 10]	ΔCD62p+ %: percentage increases in CD62p positive platelets [1, 10] [%]	ratio: % CD62p+ (with substance)/% CD62p+ (without) [1, 11]	ΔCD62p+ %: percentage increases in CD62p positive platelets [1, 11] [%]	platelet activation [1, 12]	fibrinogen concentrations [2]	further results
Sulfated (2-hydroxypropyl)-β-cyclodextrin [HP-CDPS]	4.9	67.6	5.1	53.0	1.0	0.1	1.1	1.2	2.1	23.3	4.7	17.1	4.6	63.2	2.8	60.7	induced platelet activation	Minor decreases	
Sulfated (2-carboxyethyl)-β-cyclodextrin [CE-CDPS]	1.8	13.9	2.2	14.4	1.1	2.4	1.2	1.1	1.4	7.9	2.7	10.2	2.2	22.9	2.4	45.0	do not significantly activate platelets	Minor decreases	cross-reactivity with the heparin/PF4 antibodies ([1]; paired analysis versus heparin, ratios and percentages of CD62p positive cells): no cross-reactivity; osteophyte growth [3, 13]: not inhibited; pannus formation [3, 13]: not inhibited; synovial inflammation [3, 13]: not inhibited; weight of the animals ([3]; 1 mg/kg subcutaneously once weekly, three weeks): did not affect; overall cartilage damage (Safranine O staining) ([3]; 1 mg/kg subcutaneously once weekly, versus PBS-treated): reduced; cartilage proteoglycan depletion in osteoarthritis knee joints ([3]; collagenase-induced knee-osteoarthritis in mice): prevented
heparin	4.2	45.5	2.2	14.3	2.8	45.6	3.9	15.1	4.3	60.3	8.2	42.3	2.7	34.8	2.8	56.4			platelet heparin activation ratios % CD62p+ (0.3 IU heparin)/% CD62p+ (0 IU heparin) ([1]; all HIT Ab positive plasma samples, the two donors): above 2; platelet activation ([1]; in the absence of patient's HIT Ab): not activated
Sulfated 6-monoamino-6-monodeoxy β-cyclodextrin [MA-CDPS]	5.2	74.8	5.5	69.9	1.4	9.6	3.5	17.4	1.9	16.7	8.2	32.6	3.5	51.1	3.1	63.6	induced platelet activation	Minor decreases	
